Target: T1, human plasma protein factor Xa (Homo sapiens, UniProt P00742)
T1 construct: The human plasma protein factor Xa was purchased from Haematologic Technologies; purchased Haematologic Technologies (Essex Junction, Vt.); host or cells: human plasma
Assay: Factor Xa IC50 determination, cleavage of paranitroanilide substrate S-2765
Format: biochemical
Settings: factor Xa 1 nM, S2765 100 μM, Tris buffered saline pH 7.4, 5% DMSO
Description: This example illustrates methods for evaluating the compounds of the invention, along with results obtained for such assays. The in vitro and in vivo human Factor Xa activities of the inventive compounds can be determined by various procedures known in the art, such as a test for their ability to inhibit the activity of human plasma Factor Xa. […] The IC50 value is the concentration (in nM) of the compound required to provide 50% inhibition of human Factor Xa proteolytic activity.
An in vitro assay for detecting and measuring inhibition activity against Factor Xa is as follows:
The substrate S-2765 (Z-D-Arg-Gly-Arg-pNA•HCl) was obtained from Diapharma (West Chester, Ohio).
The human plasma protein factor Xa was purchased from Haematologic Technologies (Essex Junction, Vt.).
All assays, which are performed in 96-well microtiter plates, measure proteolytic activity of the enzyme (factor Xa) by following cleavage of a paranitroanilide peptide substrate. The assay buffer used for proteolytic assays was Tris buffered saline (20 mM Tris, 150 mM NaCl, 5 mM CaCl2, 0.1% Bovine serum albumin (BSA), 5% Dimethly Sulfoxide (DMSO) pH 7.4). In a 96-well microtiter plate, inhibitor was serially diluted to give a range of final concentrations from 0.01 nM to 10 μM. Duplicate sets of wells were assayed and control wells without inhibitor were included. Enzyme was added to each well, (factor Xa concentration=1 nM), the plate was shaken for 5 seconds and then incubated for 5 minutes at room temperature. S2765 was added (100 μM final) and the plate was shaken for 5 seconds (final volume in each well was 200 μl). The degree of substrate hydrolysis was measured at 405 nm on a Thermomax plate reader (Molecular Devices, Sunnyvale, Calif.) for 2 minutes. The initial velocities of substrate cleavage (mOD/min), for each range of inhibitor concentrations, were fitted to a four parameter equation using Softmax data analysis software. The parameter C, derived from the resulting curve-fit, corresponded to the concentration for half maximal inhibition (IC50).

T1 sequence (P00742 235-488 limits assumed): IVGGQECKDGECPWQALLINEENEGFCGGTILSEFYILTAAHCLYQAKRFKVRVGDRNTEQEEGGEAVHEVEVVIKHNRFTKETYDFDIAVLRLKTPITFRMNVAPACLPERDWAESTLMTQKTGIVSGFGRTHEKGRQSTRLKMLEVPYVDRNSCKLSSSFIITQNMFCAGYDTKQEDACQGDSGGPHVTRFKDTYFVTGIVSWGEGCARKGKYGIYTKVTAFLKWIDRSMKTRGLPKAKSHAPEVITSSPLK
T1 sequence (P00742 41-179 partner limits assumed): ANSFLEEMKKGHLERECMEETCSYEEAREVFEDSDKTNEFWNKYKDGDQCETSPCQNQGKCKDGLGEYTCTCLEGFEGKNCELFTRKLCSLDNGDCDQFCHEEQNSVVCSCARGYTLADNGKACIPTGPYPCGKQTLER

| IC50 | SMILES |
| --- | --- |
| ≤ 100 nM | CC(=O)/N=c1\ccccn1-c1ccc(-n2cnc(CNC(=O)c3ccc(Cl)s3)c2)cc1 [Compound 36, (E)-N-((1-(4-(2-(acetylimino)pyridin-1(2H)-yl)phenyl)-1H-imidazol-4-yl)methyl)-5-chlorothiophene-2-carboxamide] |
| ≥ 500 nM | Cn1cc(Cl)cc1C(=O)NCc1cn(-c2ccc(-n3ccccc3=O)cc2)cn1 [Compound 37, 4-chloro-1-methyl-N-((1-(4-(2-oxopyridin-1(2H)-yl)phenyl)-1H-imidazol-4-yl)methyl)-1H-pyrrole-2-carboxamide] |
| ≥ 500 nM | Cn1c(Cl)ccc1C(=O)NCc1cn(-c2ccc(-n3ccccc3=O)cc2)cn1 [Compound 38, 5-chloro-1-methyl-N-((1-(4-(2-oxopyridin-1(2H)-yl)phenyl)-1H-imidazol-4-yl)methyl)-1H-pyrrole-2-carboxamide] |
| ≤ 100 nM | O=C(NCc1cn(-c2ccc(-n3ccccc3=O)c(F)c2)cn1)c1ccc(Cl)s1 [Compound 40, 5-chloro-N-((1-(3-fluoro-4-(2-oxopyridin-1(2H)-yl)phenyl)-1H-imidazol-4-yl)methyl)thiophene-2-carboxamide] |
| ≤ 100 nM | COc1cccn(-c2ccc(-n3cnc(CNC(=O)c4ccc(Cl)s4)c3)cc2)c1=O [Compound 41, 5-chloro-N-((1-(4-(3-methoxy-2-oxopyridin-1(2H)-yl)phenyl)-1H-imidazol-4-yl)methyl)thiophene-2-carboxamide] |
| ≤ 100 nM | O=C(NCc1cn(-c2ccc(-n3cccc(O)c3=O)cc2)cn1)c1ccc(Cl)s1 [Compound 42, 5-chloro-N-((1-(4-(3-hydroxy-2-oxopyridin-1(2H)-yl)phenyl)-1H-imidazol-4-yl)methyl)thiophene-2-carboxamide] |
| ≤ 100 nM | O=C(NCc1cn(-c2ccc(-n3cccc(F)c3=O)cc2)cn1)c1ccc(Cl)s1 [Compound 43, 5-chloro-N-((1-(4-(3-fluoro-2-oxopyridin-1(2H)-yl)phenyl)-1H-imidazol-4-yl)methyl)thiophene-2-carboxamide] |
| ≤ 100 nM | Cc1cccn(-c2ccc(-n3cnc(CNC(=O)c4ccc(Cl)s4)c3)cc2)c1=O [Compound 44, 5-chloro-N-((1-(4-(3-methyl-2-oxopyridin-1(2H)-yl)phenyl)-1H-imidazol-4-yl)methyl)thiophene-2-carboxamide] |
| ≤ 100 nM | Cc1ccc(=O)n(-c2ccc(-n3cnc(CNC(=O)c4ccc(Cl)s4)c3)cc2)c1 [Compound 45, 5-chloro-N-((1-(4-(5-methyl-2-oxopyridin-1(2H)-yl)phenyl)-1H-imidazol-4-yl)methyl)thiophene-2-carboxamide] |
| 100 to 500 nM | O=C(NCc1cn(-c2ccc(-n3ccc(O)cc3=O)cc2)cn1)c1ccc(Cl)s1 [Compound 46, 5-chloro-N-((1-(4-(4-hydroxy-2-oxopyridin-1(2H)-yl)phenyl)-1H-imidazol-4-yl)methyl)thiophene-2-carboxamide] |
| ≤ 100 nM | O=C(NCc1cn(-c2ccc(-n3ccc(=O)[nH]c3=O)cc2)cn1)c1ccc(Cl)s1 [Compound 47, 5-chloro-N-((1-(4-(2,4-dioxo-3,4-dihydropyrimidin-1(2H)-yl)phenyl)-1H-imidazol-4-yl)methyl)thiophene-2-carboxamide] |
| ≤ 100 nM | Nc1ccn(-c2ccc(-n3cnc(CNC(=O)c4ccc(Cl)s4)c3)cc2)c(=O)n1 [Compound 48, N-((1-(4-(4-amino-2-oxopyrimidin-1(2H)-yl)phenyl)-1H-imidazol-4-yl)methyl)-5-chlorothiophene-2-carboxamide] |
| ≤ 100 nM | Cn1c(=O)ccn(-c2ccc(-n3cnc(CNC(=O)c4ccc(Cl)s4)c3)cc2)c1=O [Compound 49, 5-chloro-N-((1-(4-(3-methyl-2,4-dioxo-3,4-dihydropyrimidin-1(2H)-yl)phenyl)-1H-imidazol-4-yl)methyl)thiophene-2-carboxamide] |
| ≤ 100 nM | Nc1nc(=O)n(-c2ccc(-n3cnc(CNC(=O)c4ccc(Cl)s4)c3)cc2)cc1F [Compound 50, N-((1-(4-(4-amino-5-fluoro-2-oxopyrimidin-1(2H)-yl)phenyl)-1H-imidazol-4-yl)methyl)-5-chlorothiophene-2-carboxamide] |
| ≤ 100 nM | CC(=O)Nc1ccn(-c2ccc(-n3cnc(CNC(=O)c4ccc(Cl)s4)c3)cc2)c(=O)n1 [Compound 51, N-((1-(4-(4-acetamido-2-oxopyrimidin-1(2H)-yl)phenyl)-1H-imidazol-4-yl)methyl)-5-chlorothiophene-2-carboxamide] |
| ≤ 100 nM | O=C(NCc1cn(-c2ccc(N3CCCCC3=O)cc2)cn1)c1ccc(Cl)s1 [Compound 52, 5-chloro-N-((1-(4-(2-oxopiperidin-1-yl)phenyl)-1H-imidazol-4-yl)methyl)thiophene-2-carboxamide] |
| ≤ 100 nM | O=C(NCc1cn(-c2ccc(-n3ccccc3=O)cc2OCCN2CCCCC2)cn1)c1ccc(Cl)s1 [Compound 53, 5-chloro-N-((1-(4-(2-oxopyridin-1(2H)-yl)-2-(2-(piperidin-1-yl)ethoxy)phenyl)-1H-imidazol-4-yl)methyl)thiophene-2-carboxamide] |
| ≥ 500 nM | O=C(NCc1cn(-c2ccc(-n3ccccc3=O)cc2)cn1)c1ccc2[nH]ccc2c1 [Compound 54, N-((1-(4-(2-oxopyridin-1(2H)-yl)phenyl)-1H-imidazol-4-yl)methyl)-1H-indole-5-carboxamide] |
| ≤ 100 nM | CSc1nc(CNC(=O)c2ccc(Cl)s2)cn1-c1ccc(-n2ccccc2=O)cc1 [Compound 55, 5-chloro-N-((2-(methylthio)-1-(4-(2-oxopyridin-1(2H)-yl)phenyl)-1H-imidazol-4-yl)methyl)thiophene-2-carboxamide] |
| ≤ 100 nM | CS(=O)(=O)c1nc(CNC(=O)c2ccc(Cl)s2)cn1-c1ccc(-n2ccccc2=O)cc1 [Compound 56, 5-chloro-N-((2-(methylsulfonyl)-1-(4-(2-oxopyridin-1(2H)-yl)phenyl)-1H-imidazol-4-yl)methyl)thiophene-2-carboxamide] |
| ≤ 100 nM | C[S+]([O-])c1nc(CNC(=O)c2ccc(Cl)s2)cn1-c1ccc(-n2ccccc2=O)cc1 (stereo not shown) [Compound 57, 5-chloro-N-((2-(methylsulfinyl)-1-(4-(2-oxopyridin-1(2H)-yl)phenyl)-1H-imidazol-4-yl)methyl)thiophene-2-carboxamide] |
| ≤ 100 nM | O=C(NCc1cn(-c2ccc(-n3ccnc(O)c3=O)cc2)cn1)c1ccc(Cl)s1 [Compound 58, 5-chloro-N-((1-(4-(3-hydroxy-2-oxopyrazin-1(2H)-yl)phenyl)-1H-imidazol-4-yl)methyl)thiophene-2-carboxamide] |
| ≤ 100 nM | O=C(NCc1cn(-c2ccc(-n3cccc(OCCO)c3=O)cc2)cn1)c1ccc(Cl)s1 [Compound 59, 5-chloro-N-((1-(4-(3-(2-hydroxyethoxy)-2-oxopyridin-1(2H)-yl)phenyl)-1H-imidazol-4-yl)methyl)thiophene-2-carboxamide] |
| ≥ 500 nM | CCN1CCN(c2ccc(-n3cnc(CNC(=O)c4ccc(Cl)s4)c3)cc2)C(=O)C1=O [Compound 60, 5-chloro-N-((1-(4-(4-ethyl-2,3-dioxopiperazin-1-yl)phenyl)-1H-imidazol-4-yl)methyl)thiophene-2-carboxamide] |
| ≤ 100 nM | NC(=O)/N=c1\ccccn1-c1ccc(-n2cnc(CNC(=O)c3ccc(Cl)s3)c2)cc1 [Compound 61, N-((1-(4-(2-(carbamoylimino)pyridin-1(2H)-yl)phenyl)-1H-imidazol-4-yl)methyl)-5-chlorothiophene-2-carboxamide] |

Reference: US8063077B2, “Factor Xa inhibitors” (Millennium Pharmaceuticals, Inc., priority 2006, dated 2011)
